Assay in all cases: biochemical
Holding throughout (set-up): DiscoveRx KINOMEscan active site-directed competition binding; percent of control kinase bound to immobilised ligand

Experiment [1] has as its target T1, BIKE (Homo sapiens, UniProt Q9NSY1).
T1 construct: gene BMP2K

For experiment [2], the target named is CAMKK1 (Homo sapiens, UniProt Q8N5S9).
In experiment [3] the target is T2, CSNK1A1L (Homo sapiens, UniProt Q8N752).
T2 sequence (Q8N752 1-337): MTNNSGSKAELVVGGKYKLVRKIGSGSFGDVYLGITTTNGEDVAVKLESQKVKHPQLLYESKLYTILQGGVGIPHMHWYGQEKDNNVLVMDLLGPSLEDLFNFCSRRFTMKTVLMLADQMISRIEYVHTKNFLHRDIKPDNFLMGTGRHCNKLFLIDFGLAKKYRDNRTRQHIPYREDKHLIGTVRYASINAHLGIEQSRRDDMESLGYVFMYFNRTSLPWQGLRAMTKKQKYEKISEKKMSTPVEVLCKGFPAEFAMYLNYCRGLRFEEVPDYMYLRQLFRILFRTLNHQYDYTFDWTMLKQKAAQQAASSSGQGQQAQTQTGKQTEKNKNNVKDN

In experiment [4] the target is T3, JAK3(JH1domain-catalytic) (Homo sapiens, UniProt P52333).
T3 construct: JH1domain-catalytic
T3 sequence (P52333 1-1124): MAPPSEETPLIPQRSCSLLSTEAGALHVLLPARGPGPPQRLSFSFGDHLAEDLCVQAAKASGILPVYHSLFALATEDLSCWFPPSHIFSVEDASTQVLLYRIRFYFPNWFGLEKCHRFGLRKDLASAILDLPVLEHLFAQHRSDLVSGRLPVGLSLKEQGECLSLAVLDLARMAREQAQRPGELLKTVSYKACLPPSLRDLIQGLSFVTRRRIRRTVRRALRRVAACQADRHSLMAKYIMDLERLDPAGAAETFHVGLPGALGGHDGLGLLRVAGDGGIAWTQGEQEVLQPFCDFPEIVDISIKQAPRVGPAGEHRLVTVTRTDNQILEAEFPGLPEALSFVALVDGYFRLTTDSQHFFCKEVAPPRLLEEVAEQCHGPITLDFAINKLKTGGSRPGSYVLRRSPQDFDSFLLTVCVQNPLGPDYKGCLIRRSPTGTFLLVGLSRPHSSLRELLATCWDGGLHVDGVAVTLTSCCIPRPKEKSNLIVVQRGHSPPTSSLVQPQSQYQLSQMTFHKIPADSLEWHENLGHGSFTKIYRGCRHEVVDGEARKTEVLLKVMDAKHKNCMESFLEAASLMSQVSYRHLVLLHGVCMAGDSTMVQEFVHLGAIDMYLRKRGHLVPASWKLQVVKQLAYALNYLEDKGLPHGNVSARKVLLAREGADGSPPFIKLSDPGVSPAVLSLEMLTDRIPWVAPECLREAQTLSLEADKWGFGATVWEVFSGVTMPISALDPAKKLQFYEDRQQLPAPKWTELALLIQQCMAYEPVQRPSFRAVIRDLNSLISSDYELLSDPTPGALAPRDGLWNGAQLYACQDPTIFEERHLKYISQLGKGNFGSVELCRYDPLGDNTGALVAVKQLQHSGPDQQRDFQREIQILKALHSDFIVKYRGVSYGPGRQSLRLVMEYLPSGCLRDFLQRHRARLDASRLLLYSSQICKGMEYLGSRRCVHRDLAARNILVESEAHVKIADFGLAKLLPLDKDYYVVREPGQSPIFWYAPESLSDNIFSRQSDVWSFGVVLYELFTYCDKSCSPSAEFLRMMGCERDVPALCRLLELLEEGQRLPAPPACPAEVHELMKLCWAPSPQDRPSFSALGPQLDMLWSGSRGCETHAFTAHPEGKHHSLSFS

In experiment [5] the target is KIT(D816V) (Homo sapiens, UniProt P10721, D816V).
The target in experiment [6] is MET (Homo sapiens, UniProt P08581).
For experiment [7], the target named is T4, PCTK3 (Homo sapiens, UniProt Q07002).
T4 construct: gene CDK18

Experiment [8] has as its target PIK3CA(I800L) (Homo sapiens, UniProt P42336, I800L).
For experiment [9], the target named is SRPK3 (Homo sapiens, UniProt Q9UPE1).
For experiment [10], the target named is SYK (Homo sapiens, UniProt P43405).
Experiment [11] has as its target TESK1 (Homo sapiens, UniProt Q15569).
In experiment [12] the target is TNIK (Homo sapiens, UniProt Q9UKE5).
Experiment [13] has as its target T5, ZAK (Homo sapiens, UniProt Q9NYL2).
T5 construct: gene MAP3K20

Setting [14] is: read-out: Niraparib (MK-4827) / %Ctrl @ 10000nM.
Setting [15] is: read-out: Olaparib / %Ctrl @ 10000nM.
[16] abbreviates: read-out: Rucaparib / %Ctrl @ 10000nM, binding competition, % of control.
Where [17] appears, read: read-out: Talazoparib (BMN 673) / %Ctrl @ 10000nM.

Like-named read-outs stand apart in the source and are kept apart here.

T4 sequence (Q07002 whole entry): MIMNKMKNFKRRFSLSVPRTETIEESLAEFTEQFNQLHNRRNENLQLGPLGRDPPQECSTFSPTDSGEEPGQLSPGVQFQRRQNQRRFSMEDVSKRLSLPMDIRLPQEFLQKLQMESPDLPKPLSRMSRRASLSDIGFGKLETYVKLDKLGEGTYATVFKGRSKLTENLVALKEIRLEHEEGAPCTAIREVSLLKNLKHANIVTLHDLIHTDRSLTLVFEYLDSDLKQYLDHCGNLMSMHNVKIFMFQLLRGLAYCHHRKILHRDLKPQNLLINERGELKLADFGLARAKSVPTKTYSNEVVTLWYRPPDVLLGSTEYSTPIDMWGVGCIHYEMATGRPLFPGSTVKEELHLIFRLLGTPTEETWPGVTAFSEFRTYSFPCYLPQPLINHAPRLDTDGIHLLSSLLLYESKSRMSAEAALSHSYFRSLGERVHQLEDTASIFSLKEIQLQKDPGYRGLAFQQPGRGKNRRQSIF
KIT(D816V), sequence (P10721 whole entry D816V): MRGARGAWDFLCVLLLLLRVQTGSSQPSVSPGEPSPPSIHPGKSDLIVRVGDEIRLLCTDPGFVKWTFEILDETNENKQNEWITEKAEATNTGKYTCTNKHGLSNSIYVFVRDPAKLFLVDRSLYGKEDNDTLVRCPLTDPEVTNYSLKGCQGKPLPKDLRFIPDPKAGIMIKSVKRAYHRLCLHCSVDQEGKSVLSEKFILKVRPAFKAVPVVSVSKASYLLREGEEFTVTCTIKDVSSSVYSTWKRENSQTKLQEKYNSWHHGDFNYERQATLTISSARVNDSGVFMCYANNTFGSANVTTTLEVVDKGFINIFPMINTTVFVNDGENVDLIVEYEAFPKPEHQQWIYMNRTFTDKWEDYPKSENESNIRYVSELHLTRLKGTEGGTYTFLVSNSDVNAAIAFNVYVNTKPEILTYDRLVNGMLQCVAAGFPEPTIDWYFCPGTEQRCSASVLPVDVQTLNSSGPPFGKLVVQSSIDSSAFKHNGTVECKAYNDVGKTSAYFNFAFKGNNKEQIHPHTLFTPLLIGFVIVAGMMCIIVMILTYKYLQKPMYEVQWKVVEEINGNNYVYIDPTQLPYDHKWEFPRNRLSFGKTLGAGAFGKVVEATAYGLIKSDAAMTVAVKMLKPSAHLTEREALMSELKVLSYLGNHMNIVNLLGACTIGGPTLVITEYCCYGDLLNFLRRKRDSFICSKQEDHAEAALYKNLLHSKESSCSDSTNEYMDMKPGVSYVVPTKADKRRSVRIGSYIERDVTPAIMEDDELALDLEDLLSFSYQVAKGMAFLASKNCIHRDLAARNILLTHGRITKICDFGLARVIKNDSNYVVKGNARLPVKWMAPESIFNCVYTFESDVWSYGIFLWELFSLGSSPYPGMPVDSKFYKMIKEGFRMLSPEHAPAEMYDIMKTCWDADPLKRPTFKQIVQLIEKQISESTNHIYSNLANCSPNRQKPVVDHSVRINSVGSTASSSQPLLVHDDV
MET, sequence (P08581 whole entry): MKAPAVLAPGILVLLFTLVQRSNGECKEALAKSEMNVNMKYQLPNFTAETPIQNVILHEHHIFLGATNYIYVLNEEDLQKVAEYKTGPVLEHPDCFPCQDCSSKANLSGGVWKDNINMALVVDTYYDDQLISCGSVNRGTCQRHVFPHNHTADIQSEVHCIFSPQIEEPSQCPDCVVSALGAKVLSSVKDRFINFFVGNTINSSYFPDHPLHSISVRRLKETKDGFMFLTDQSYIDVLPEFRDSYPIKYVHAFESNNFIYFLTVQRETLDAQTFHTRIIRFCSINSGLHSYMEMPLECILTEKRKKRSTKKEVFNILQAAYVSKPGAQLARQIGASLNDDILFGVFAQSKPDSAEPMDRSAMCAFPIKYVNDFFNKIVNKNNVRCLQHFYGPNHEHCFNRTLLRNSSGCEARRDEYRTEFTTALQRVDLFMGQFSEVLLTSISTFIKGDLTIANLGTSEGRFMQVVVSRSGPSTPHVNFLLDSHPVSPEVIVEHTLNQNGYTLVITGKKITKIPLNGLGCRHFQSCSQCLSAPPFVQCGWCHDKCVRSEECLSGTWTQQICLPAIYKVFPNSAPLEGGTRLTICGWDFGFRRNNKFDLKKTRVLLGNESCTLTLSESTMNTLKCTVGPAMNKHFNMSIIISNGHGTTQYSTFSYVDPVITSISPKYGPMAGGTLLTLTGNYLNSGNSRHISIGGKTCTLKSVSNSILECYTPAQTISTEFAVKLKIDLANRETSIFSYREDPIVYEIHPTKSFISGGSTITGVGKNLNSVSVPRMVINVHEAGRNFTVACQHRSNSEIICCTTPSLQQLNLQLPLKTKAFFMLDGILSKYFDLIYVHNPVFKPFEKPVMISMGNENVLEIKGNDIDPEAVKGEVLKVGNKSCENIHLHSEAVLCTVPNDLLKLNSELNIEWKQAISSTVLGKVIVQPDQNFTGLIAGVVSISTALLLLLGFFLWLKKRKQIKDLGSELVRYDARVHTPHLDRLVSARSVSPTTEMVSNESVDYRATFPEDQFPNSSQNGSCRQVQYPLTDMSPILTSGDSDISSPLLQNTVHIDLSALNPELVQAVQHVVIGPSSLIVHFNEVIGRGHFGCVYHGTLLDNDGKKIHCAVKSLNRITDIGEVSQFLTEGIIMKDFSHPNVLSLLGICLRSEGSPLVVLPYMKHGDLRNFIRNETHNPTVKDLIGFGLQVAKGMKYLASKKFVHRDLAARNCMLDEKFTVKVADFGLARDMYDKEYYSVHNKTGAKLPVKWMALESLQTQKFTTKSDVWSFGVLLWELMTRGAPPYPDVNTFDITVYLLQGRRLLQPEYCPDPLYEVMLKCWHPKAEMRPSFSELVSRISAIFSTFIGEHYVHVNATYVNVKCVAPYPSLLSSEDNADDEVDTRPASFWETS
SRPK3, sequence (Q9UPE1 whole entry): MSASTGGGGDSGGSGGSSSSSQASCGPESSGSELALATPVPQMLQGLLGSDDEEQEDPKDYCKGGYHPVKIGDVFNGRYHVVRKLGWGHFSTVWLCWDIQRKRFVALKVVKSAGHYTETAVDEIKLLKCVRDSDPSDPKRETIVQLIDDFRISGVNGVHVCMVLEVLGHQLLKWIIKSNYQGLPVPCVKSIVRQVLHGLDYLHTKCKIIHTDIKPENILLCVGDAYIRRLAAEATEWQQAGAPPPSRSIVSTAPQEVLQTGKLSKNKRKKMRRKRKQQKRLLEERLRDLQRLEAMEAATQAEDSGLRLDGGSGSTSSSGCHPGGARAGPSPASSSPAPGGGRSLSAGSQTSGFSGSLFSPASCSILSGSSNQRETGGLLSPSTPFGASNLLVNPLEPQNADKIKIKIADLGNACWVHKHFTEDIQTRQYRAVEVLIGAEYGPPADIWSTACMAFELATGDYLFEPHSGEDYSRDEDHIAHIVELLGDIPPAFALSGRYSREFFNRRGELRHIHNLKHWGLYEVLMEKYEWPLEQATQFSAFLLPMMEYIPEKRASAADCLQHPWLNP
T5 sequence (Q9NYL2 whole entry): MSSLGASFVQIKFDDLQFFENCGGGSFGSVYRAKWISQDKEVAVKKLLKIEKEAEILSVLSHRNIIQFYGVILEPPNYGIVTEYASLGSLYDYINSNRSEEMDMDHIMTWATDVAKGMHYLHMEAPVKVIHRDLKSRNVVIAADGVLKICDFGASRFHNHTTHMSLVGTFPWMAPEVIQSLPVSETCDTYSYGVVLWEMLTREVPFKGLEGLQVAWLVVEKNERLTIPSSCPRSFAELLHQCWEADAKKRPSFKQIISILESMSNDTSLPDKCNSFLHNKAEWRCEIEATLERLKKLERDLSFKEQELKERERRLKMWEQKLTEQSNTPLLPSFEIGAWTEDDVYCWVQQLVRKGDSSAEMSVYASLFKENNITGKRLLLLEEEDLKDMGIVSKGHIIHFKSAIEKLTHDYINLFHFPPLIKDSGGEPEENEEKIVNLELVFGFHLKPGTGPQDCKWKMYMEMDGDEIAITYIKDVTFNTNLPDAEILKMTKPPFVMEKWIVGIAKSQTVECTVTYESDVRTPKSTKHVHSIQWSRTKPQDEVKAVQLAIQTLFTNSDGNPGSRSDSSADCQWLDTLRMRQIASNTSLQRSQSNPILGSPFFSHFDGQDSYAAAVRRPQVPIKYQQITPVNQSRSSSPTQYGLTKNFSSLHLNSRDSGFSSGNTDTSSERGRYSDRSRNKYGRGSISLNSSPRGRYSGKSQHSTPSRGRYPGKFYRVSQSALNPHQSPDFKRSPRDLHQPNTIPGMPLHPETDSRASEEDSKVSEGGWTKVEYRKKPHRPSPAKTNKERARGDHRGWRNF
TESK1, sequence (Q15569 whole entry): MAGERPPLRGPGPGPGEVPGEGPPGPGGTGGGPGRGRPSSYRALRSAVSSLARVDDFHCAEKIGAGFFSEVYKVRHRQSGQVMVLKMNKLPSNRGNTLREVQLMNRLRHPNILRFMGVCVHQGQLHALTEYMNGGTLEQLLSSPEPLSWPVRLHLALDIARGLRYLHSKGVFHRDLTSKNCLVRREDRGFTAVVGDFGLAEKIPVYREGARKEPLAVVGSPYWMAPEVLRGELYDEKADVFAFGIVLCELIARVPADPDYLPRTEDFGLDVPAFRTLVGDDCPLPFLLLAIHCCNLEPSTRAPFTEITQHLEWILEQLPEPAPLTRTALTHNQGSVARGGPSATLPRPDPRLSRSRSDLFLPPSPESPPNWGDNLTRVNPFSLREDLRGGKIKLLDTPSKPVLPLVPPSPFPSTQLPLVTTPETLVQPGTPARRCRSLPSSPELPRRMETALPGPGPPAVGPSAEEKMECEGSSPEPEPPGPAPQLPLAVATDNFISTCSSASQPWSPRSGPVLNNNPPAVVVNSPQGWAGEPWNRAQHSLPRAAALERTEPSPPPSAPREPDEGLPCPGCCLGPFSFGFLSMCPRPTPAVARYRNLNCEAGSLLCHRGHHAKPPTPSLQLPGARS

For the compound `NC(=O)c1cccc2cn(-c3ccc([C@@H]4CCCNC4)cc3)nc12` [Niraparib], the percent of control binding at 10 µM in experiment [1] (setting [14]) was determined as 81%; in [2] (setting [14]), 88%; in experiment [3] (setting [14]), 76%; in [4] (setting [14]), 95%; in [5] (setting [14]), 89%; in experiment [6] (setting [14]), 92%. The percent of control binding at 10 µM was found to be 70% in experiment [7] (setting [14]); 38% in [8] (setting [14]); 71% in [9] (setting [14]); 82% in experiment [10] (setting [14]); 79% in [11] (setting [14]); 86% in experiment [12] (setting [14]). Moreover, in experiment [13] (setting [14]), the percent of control binding at 10 µM was found to be 88%.
On to `O=C(c1cc(Cc2n[nH]c(=O)c3ccccc23)ccc1F)N1CCN(C(=O)C2CC2)CC1` [Olaparib], for which the percent of control binding at 10 µM was 100% in experiment [1] (setting [15]); 88% in experiment [2] (setting [15]); 99% in experiment [3] (setting [15]); 83% in [4] (setting [15]); 100% in experiment [5] (setting [15]); 91% in experiment [6] (setting [15]). Moreover, the percent of control binding at 10 µM in experiment [7] (setting [15]) amounted to 100%; in [8] (setting [15]), 80%; in experiment [9] (setting [15]), 84%; in experiment [10] (setting [15]) it was 100%; in experiment [11] (setting [15]) it was 90%; in [12] (setting [15]), 100%. Besides, the percent of control binding at 10 µM in [13] (setting [15]) is 94%.
As for `CNCc1ccc(-c2[nH]c3cc(F)cc4c3c2CCNC4=O)cc1` [Rucaparib], the percent of control binding at 10 µM was 72% in [1] (setting [16]); 66% in [2] (setting [16]); 86% in experiment [3] (setting [16]); 70% in [4] (setting [16]); 96% in experiment [5] (setting [16]); 92% in experiment [6] (setting [16]). Moreover, the percent of control binding at 10 µM in experiment [7] (setting [16]) worked out at 69%; in experiment [8] (setting [16]), 66%; in [9] (setting [16]) it was 85%; in [10] (setting [16]), 100%; in experiment [11] (setting [16]) it was 98%; in experiment [12] (setting [16]) it was 22%. Besides, the percent of control binding at 10 µM in [13] (setting [16]) was 93%.
Regarding `Cn1ncnc1[C@H]1c2n[nH]c(=O)c3cc(F)cc(c23)N[C@@H]1c1ccc(F)cc1` [Talazoparib], the percent of control binding at 10 µM in [1] (setting [17]) worked out at 93%; in experiment [2] (setting [17]) it was 97%; in [3] (setting [17]), 100%; in experiment [4] (setting [17]), 100%; in experiment [5] (setting [17]), 94%; in experiment [6] (setting [17]) it was 99%. Moreover, the percent of control binding at 10 µM worked out at 99% in experiment [7] (setting [17]); 71% in [8] (setting [17]); 100% in experiment [9] (setting [17]); 85% in experiment [10] (setting [17]); 99% in experiment [11] (setting [17]); 98% in experiment [12] (setting [17]). Besides, in experiment [13] (setting [17]), the percent of control binding at 10 µM was determined as 97%.
